Article PMC6594423, “Cobimetinib and trametinib inhibit platelet MEK but do not cause platelet dysfunction” (Platelets, 2018)

System: T1, MEK1 (platelet MEK; MEK1/2 not resolved)
T1 construct: gene MAP2K1
Test: western blot of ERK1/[…] phosphorylation (MEK substrate) in CRP- or TRAP-6-stimulated washed human platelets
Format: cell-based

log10 IC50 (M)	Compound	IC50
-9.5	O=C(c1ccc(F)c(F)c1Nc1ccc(I)cc1F)N1CC(O)([C@@H]2CCCCN2)C1 [Cobimetinib]	–
–	CC(=O)Nc1cccc(-n2c(=O)n(C3CC3)c(=O)c3c(Nc4ccc(I)cc4F)n(C)c(=O)c(C)c32)c1 [Trametinib]	−10.9 ± 0.43 (logIC50) log M
